Experimental data published in patent publication US7125662B2, “Method of identifying putative antibiotic resistance genes” (priority 2000, dated 2006).
≈ marks a conversion by molar mass, not a printed value.

What was measured:
[1] = system: host expressing Citrobacter freundii ampC gene LAT4; experiment: MIC conferred by ampC gene LAT4 cloned into common vector; assay type: cell-based
Excerpt: (§1) The plasmid-borne ampC genes shown in Table 1 (below) have been cloned into a common vector to ensure that all genes are expressed at the same level. […] That is completely expected because those genes were isolated from clinical samples and identified on the basis of conferring resistance to clinical drugs. ampC genes from two strains of Citrobacter freundii that were isolated in the 1920's, in the pre-antibiotic era, were also cloned into the same vector.

[2] = system: host expressing Citrobacter freundii ampC gene LAT2; experiment: MIC conferred by ampC gene LAT2 cloned into common vector; assay type: cell-based
Excerpt: as §1

[3] = system: host expressing Citrobacter freundii ampC gene CMY3b; experiment: MIC conferred by ampC gene CMY3b cloned into common vector; assay type: cell-based
Excerpt: as §1

[4] = system: host expressing Citrobacter freundii ampC gene LAT1; experiment: MIC conferred by ampC gene LAT1 cloned into common vector; assay type: cell-based
Excerpt: as §1

[5] = system: host expressing Citrobacter freundii ampC gene Cfre8454; experiment: MIC conferred by ampC gene Cfre8454 cloned into common vector; assay type: cell-based; details: for Minimum Inhibitory Concentration (MIC): Cfre 8454, gene from organism isolated in the 1920's
Excerpt: as §1

[6] = system: host expressing Citrobacter freundii ampC gene Cfre6879; experiment: MIC conferred by ampC gene Cfre6879 cloned into common vector; assay type: cell-based; details: Cfre 6879, gene from organism isolated in the 1920's
Excerpt: as §1

No Plasmid host = experiment: MIC, host with no plasmid (Table 1); assay type: cell-based
Excerpt: (§2) The plasmid-borne ampC genes shown in Table 1 (below) have been cloned into a common vector to ensure that all genes are expressed at the same level.

[7] = cited from earlier work; for Clin. = the MIC for clinical resistance: Table 1, β-lactams, unit assumed; for Minimum Inhibitory Concentration, Clinical Resistance: Table 2, aminoglycosides
[8] = system: host expressing Citrobacter freundii ampC gene LAT3; experiment: MIC conferred by ampC gene LAT3 cloned into common vector; assay type: cell-based
Excerpt: as §1

[9] = system: host expressing Citrobacter freundii ampC gene CMY2; experiment: MIC conferred by ampC gene CMY2 cloned into common vector; assay type: cell-based
Excerpt: as §1

[10] = system: evolved E. coli ampC gene; details: two or three laboratory-induced mutations; cited from earlier work
[11] = system: plasmid-borne ampC genes CMY-2, CMY-3b, LAT-1, LAT-2, LAT-3, and LAT-4; experiment: Clinical resistance conferred by plasmid-borne ampC genes as a group; assay type: cell-based, Citrobacter freundii; details: all of CMY-2, CMY-3b, LAT-1, LAT-2, LAT-3, LAT-4
Excerpt: as §2

[12] = system: Salmonella enteritidis serovar typhimurium strain LT2; experiment: MIC, native Salmonella strain LT2; assay type: cell-based; details: for MIC: Salmonella enterica, read-out: Minimum Inhibitory Concentration; for sensitivity of the strain to the drug: native strain LT2
DH5α-E/pACSE2 = experiment: MIC, host with empty expression vector; assay type: cell-based, E. coli; details: for MIC: Escherichia coli, read-out: Minimum Inhibitory Concentration
Method: (§3) The putative AAC(6′) aminogylcoside N6′-acetyltransferase gene from Salmonella enteritidis serovar typhimurium strain LT2, designated AAC(6′)-Iaa, was amplified by PCR and cloned into the expression vector pACSE2 (U.S. patent application Ser. No. 09/640,882 to Hall, filed Aug. 18, 2000, which is hereby incorporated by reference in its entirety). The resulting plasmid was designated pAAC(6′)-Iaa (FIG. 2A). The sequence of the AAC(6′)-Iaa coding region was determined by automated DNA sequencing and was confirmed to be identical to the sequence obtained from the incomplete genome sequence database (FIG. 2B).

DH5α-E/pAAC(6′)-Iaa = experiment: MIC, transgenic host expressing AAC(6′)-Iaa; assay type: cell-based, E. coli; details: for MIC: Escherichia coli, read-out: Minimum Inhibitory Concentration; for resistance conferred by plasmid pAAC(6′)-Iaa: transformed into E. coli strain DH5α-E
Method: as §3

E. coli K12 ampC = details: gene cloned into a plasmid, effective promoter; cited from earlier work
[13] = S. enteritidis serovar typhimurium LT2

Row | Molecule | Minimum Inhibitory Concentration (MIC) [1] | Minimum Inhibitory Concentration (MIC) [2] | Minimum Inhibitory Concentration (MIC) [3] | Minimum Inhibitory Concentration (MIC) [4] | Minimum Inhibitory Concentration (MIC) [5] | Minimum Inhibitory Concentration (MIC) [6] | Minimum Inhibitory Concentration (MIC) (No Plasmid host) | Clin. = the MIC for clinical resistance [7] | Minimum Inhibitory Concentration (MIC) [8] | Minimum Inhibitory Concentration (MIC) [9] | resistance conferred after further evolution [10] | clinical resistance conferred [11] | other results
1 | CO[C@@]1(NC(=O)C(C(=O)O)c2ccsc2)C(=O)N2[C@@H](C(=O)O)C(C)(C)S[C@@H]21 (some centres unmarked) [Temocillin] | 64 | 32 | 32 | 64 | 32 | 32 | 4 | 32 µg/mL | 64 | 32 | confer resistance | confer clinical resistance | 
2 | CO/N=C(\C(=O)N[C@@H]1C(=O)N2C(C(=O)O)=C(COC(C)=O)CS[C@H]12)c1csc(N)n1 [Cefotaxime] | 256 | 64 | 64 | 64 | 128 | 128 |  | 64 µg/mL | 128 | 64 |  | confer clinical resistance | 
3 | NC[C@H]1O[C@H](O[C@H]2[C@H](O)[C@@H](O[C@H]3O[C@H](CO)[C@@H](O)[C@H](N)[C@H]3O)[C@H](N)C[C@@H]2N)[C@H](O)[C@@H](O)[C@@H]1O [Kanamycin] |  |  |  |  |  |  |  |  |  |  |  |  | MIC [12, 13]: 4 µg/mL (≈ 8.26 µM); MIC (DH5α-E/pACSE2): 0.125 µg/mL (≈ 0.258 µM); MIC (DH5α-E/pAAC(6′)-Iaa; DH5α-E/pAAC(6′)-Iaa): 32 µg/mL (≈ 66 µM)
4 | CO/N=C(\C(=O)N[C@@H]1C(=O)N2C(C(=O)O)=C(COC(N)=O)CS[C@H]12)c1ccco1 [Cefuroxime] | 2048 | 256 | 1024 | 2048 | 512 | 512 | 8 | 32 µg/mL | 1024 | 256 |  | confer clinical resistance | clinical resistance conferred (E. coli K12 ampC): confers clinical resistance
5 | CC1(C)S[C@@H]2[C@H](NC(=O)[C@H](N)c3ccccc3)C(=O)N2[C@H]1C(=O)O [Ampicillin] | 1024 | 2048 | 1024 | 1024 | 2048 | 1024 | 2 | 32 µg/mL | 1024 | 1024 |  | confer clinical resistance | clinical resistance conferred (E. coli K12 ampC): confers clinical resistance
6 | CC(C)(O/N=C(\C(=O)N[C@@H]1C(=O)N2C(C(=O)[O-])=C(C[n+]3ccccc3)CS[C@H]12)c1csc(N)n1)C(=O)O [Ceftazidime] | 256 | 256 | 256 | 256 | 8 | 512 | 0.25 | 32 µg/mL | 256 | 128 | confer resistance | confer clinical resistance | resistance conferred ([5]; Cfre8454, without any additional mutations): does not confer clinical resistance
7 | CCN1CCN(C(=O)N[C@@H](C(=O)N[C@@H]2C(=O)N3[C@@H]2SC(C)(C)[C@@H]3C(=O)O)c2ccccc2)C(=O)C1=O [Pipericillin] | 512 | 256 | 128 | 128 | 512 | 512 | 2 | 128 µg/mL | 512 | 256 | confer resistance | confer clinical resistance | 
8 | Gentamycin |  |  |  |  |  |  |  |  |  |  |  |  | Minimum Inhibitory Concentration [12, 13]: 2 µg/mL; sensitivity of the strain to the drug [12]: sensitive; Minimum Inhibitory Concentration (DH5α-E/pACSE2): 0.25 µg/mL; Minimum Inhibitory Concentration (DH5α-E/pAAC(6′)-Iaa; DH5α-E/pAAC(6′)-Iaa): 0.5 µg/mL; resistance conferred by plasmid pAAC(6′)-Iaa (DH5α-E/pAAC(6′)-Iaa): not; Minimum Inhibitory Concentration, Clinical Resistance [7]: 8 µg/mL
9 | NC[C@H]1O[C@H](O[C@H]2[C@H](O)[C@@H](O[C@H]3O[C@H](CO)[C@@H](O)[C@H](N)[C@H]3O)[C@H](N)C[C@@H]2N)[C@H](N)C[C@@H]1O [Tobramycin] |  |  |  |  |  |  |  |  |  |  |  |  | MIC [12, 13]: 4 µg/mL (≈ 8.56 µM); sensitivity of the strain to the drug [12]: sensitive; MIC (DH5α-E/pACSE2): 0.25 µg/mL (≈ 0.535 µM); MIC (DH5α-E/pAAC(6′)-Iaa; DH5α-E/pAAC(6′)-Iaa): 16 µg/mL (≈ 34.2 µM); resistance conferred by plasmid pAAC(6′)-Iaa (DH5α-E/pAAC(6′)-Iaa): conferred resistance; Minimum Inhibitory Concentration, Clinical Resistance [7]: 8 µg/mL
10 | CC(=O)OCC1=C(C(=O)O)N2C(=O)[C@@H](NC(=O)Cc3cccs3)[C@H]2SC1 [Cephalothin] | 4096 | 4096 | 2048 | 4096 | 2048 | 1024 | 4 | 32 µg/mL | 2048 | 1024 |  | confer clinical resistance | clinical resistance conferred (E. coli K12 ampC): confers clinical resistance
11 | C[C@H]1[C@H](NC(=O)/C(=N\OC(C)(C)C(=O)O)c2csc(N)n2)C(=O)N1S(=O)(=O)O [Aztreonam] | 128 | 64 | 128 | 256 | 128 | 256 |  |  | 64 | 16 | confer resistance |  | 
12 | NCC[C@H](O)C(=O)N[C@@H]1C[C@H](N)[C@@H](O[C@H]2O[C@H](CN)[C@@H](O)[C@H](O)[C@H]2O)[C@H](O)[C@H]1O[C@H]1O[C@H](CO)[C@@H](O)[C@H](N)[C@H]1O [Amikacin] |  |  |  |  |  |  |  |  |  |  |  |  | MIC [12, 13]: 4 µg/mL (≈ 6.83 µM); sensitivity of the strain to the drug [12]: sensitive; MIC (DH5α-E/pACSE2): 0.25 µg/mL (≈ 0.427 µM); MIC (DH5α-E/pAAC(6′)-Iaa; DH5α-E/pAAC(6′)-Iaa): 8 µg/mL (≈ 13.7 µM); resistance conferred by plasmid pAAC(6′)-Iaa (DH5α-E/pAAC(6′)-Iaa): not; Minimum Inhibitory Concentration, Clinical Resistance [7]: 32 µg/mL
